pIC50: −log10 of the molar value.
Columns and labels:
[1] = target: Tyrosine-protein kinase BTK (Homo sapiens, UniProt Q06187); test: Inhibition of human BTK (382 to 659 residues) expressed in baculovirus infected Sf21 insect cells preincubated for 15 mins followed by ATP addition and measured upto 180 mins by microfluidic capillary electrophoresis analysis
SNU-16 = test: Antiproliferative activity against human SNU-16 cells assessed as inhibition of cell growth incubated for 72 hrs by MTT colorimetric assay; type: functional, cell-based; conditions: SNU-16, 72 h
KG-1 = test: Antiproliferative activity against human KG-1 cells assessed as inhibition of cell growth incubated for 72 hrs by MTT colorimetric assay; type: functional, cell-based; conditions: KG-1, 72 h
RT-112 = test: Antiproliferative activity against human RT-112 cells assessed as inhibition of cell growth incubated for 72 hrs by MTT colorimetric assay; type: functional, cell-based; conditions: RT-112, 72 h
[2] = Antiproliferative activity against human KATO III stomach cancer cell line assessed as inhibition of cell growth incubated for 72 hrs by MTT colorimetric assay; type: functional, cell-based
NCI-H1581 = test: Antiproliferative activity against human NCI-H1581 cells assessed as inhibition of cell growth incubated for 72 hrs by MTT colorimetric assay; type: functional, cell-based; conditions: NCI-H1581, 72 h
[3] = target: T1, Fibroblast growth factor receptor 1 (Homo sapiens, UniProt P11362); test: Inhibition of human recombinant FGFR1 using Poly (Glu, Tyr)4:1 as substrate at 10 nM incubated for 90 mins in presence of ATP by ELISA based spectrophotometer assay
Target sequence in this assay (P11362 22-822 limits assumed): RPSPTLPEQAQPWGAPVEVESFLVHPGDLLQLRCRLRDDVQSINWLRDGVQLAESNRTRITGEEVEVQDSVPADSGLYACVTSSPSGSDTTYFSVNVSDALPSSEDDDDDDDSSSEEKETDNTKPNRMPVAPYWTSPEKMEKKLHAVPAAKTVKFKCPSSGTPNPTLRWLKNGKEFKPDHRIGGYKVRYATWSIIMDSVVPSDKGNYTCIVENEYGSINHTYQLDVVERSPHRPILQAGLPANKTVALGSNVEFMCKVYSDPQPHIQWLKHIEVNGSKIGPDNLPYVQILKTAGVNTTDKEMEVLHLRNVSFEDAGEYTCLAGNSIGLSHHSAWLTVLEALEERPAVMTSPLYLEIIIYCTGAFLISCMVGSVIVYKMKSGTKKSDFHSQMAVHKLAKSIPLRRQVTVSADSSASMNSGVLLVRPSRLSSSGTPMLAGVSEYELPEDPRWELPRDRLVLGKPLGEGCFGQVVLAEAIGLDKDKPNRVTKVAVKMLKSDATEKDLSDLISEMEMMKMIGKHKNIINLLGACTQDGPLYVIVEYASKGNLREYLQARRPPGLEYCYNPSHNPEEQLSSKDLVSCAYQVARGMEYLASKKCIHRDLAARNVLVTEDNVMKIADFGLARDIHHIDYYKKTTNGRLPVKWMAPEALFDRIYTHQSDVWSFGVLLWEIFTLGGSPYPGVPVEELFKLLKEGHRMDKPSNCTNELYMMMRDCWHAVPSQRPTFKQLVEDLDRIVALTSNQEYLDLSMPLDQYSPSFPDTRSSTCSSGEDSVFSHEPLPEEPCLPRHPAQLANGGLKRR

[4] = target: Fibroblast growth factor receptor (Homo sapiens, UniProt P22607+P11362+P22455+P21802); test: Inhibition of FGFR (unknown origin) using […] incubated for 60 mins by Kinase-Glo Plus luminescence assay; type: protein assay
[5] = target: T1, Fibroblast growth factor receptor 1; test: Inhibition of FGFR1 (unknown origin) in presence of ATP by caliper mobility shift assay
Target sequence in this assay (P11362 whole entry): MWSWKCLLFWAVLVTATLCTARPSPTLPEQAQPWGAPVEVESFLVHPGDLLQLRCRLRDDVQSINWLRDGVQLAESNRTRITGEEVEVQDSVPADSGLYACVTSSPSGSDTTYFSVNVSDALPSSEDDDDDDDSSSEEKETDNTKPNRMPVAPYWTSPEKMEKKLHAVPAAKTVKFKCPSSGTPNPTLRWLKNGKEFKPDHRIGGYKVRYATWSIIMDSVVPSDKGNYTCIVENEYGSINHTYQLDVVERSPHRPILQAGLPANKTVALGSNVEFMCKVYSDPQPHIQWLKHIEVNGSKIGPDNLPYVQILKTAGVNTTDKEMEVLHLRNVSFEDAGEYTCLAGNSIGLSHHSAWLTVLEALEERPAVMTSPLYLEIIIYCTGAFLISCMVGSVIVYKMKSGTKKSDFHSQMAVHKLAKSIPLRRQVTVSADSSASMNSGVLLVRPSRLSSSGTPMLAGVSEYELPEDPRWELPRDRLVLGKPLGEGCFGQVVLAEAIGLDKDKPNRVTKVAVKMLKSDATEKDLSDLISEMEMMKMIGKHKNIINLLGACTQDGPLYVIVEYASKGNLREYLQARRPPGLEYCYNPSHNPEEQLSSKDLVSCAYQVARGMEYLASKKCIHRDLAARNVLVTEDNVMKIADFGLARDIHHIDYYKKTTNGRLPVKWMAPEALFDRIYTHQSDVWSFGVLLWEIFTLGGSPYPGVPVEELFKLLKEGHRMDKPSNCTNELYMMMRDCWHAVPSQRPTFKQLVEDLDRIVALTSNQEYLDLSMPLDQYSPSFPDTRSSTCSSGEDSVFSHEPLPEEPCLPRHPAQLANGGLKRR

Tyrosine-protein kinase BTK, sequence (Q06187 whole entry, the tested form may be a part): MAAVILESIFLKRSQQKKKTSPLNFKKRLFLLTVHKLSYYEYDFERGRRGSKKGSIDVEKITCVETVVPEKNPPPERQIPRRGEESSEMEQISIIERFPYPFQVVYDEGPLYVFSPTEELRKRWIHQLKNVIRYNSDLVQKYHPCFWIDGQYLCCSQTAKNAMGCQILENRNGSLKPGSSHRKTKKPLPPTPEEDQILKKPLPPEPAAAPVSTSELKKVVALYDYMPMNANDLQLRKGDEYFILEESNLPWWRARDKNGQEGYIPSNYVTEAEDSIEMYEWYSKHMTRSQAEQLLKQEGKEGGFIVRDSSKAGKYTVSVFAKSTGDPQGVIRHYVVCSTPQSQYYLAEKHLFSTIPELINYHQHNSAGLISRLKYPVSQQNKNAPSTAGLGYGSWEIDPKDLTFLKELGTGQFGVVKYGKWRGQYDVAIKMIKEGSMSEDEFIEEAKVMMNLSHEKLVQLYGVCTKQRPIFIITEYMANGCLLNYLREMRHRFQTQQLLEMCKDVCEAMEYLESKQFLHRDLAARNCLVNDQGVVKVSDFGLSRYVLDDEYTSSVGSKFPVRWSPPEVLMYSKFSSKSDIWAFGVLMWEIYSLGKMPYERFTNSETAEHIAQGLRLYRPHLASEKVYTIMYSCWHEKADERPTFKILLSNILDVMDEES

CNc1ncc2cc(-c3cc(OC)cc(OC)c3Cl)c(=O)n(CCc3ccc(NC(=O)/C(C#N)=C/C(C)(C)N)cc3)c2n1
pIC50 [1]: 9.30

Cc1n[nH]c2ccc(-c3cc(N[C@@H](CO)c4ccccc4)cnc3-c3cc(F)ccc3O)cc12
pIC50 (SNU-16): 7.61 | pIC50 (KG-1): 7.84 | pIC50 (RT-112): 6.91 | pIC50 [2]: 6.81 | pIC50 (NCI-H1581): 6.41

Cn1cc(-c2cnc3cnn(S(=O)(=O)c4ccccc4)c3n2)cn1
inhibition [3]: > 90%

Cc1nc(OCC(=O)N/N=C/c2ccc(Cl)cc2)c2c(C)nn(-c3ccccc3)c2n1
IC50 [4]: 9590 nM

O=S(=O)(c1cn(CCF)cn1)n1ncc2ncc(-c3cn[nH]c3)nc21
inhibition [3]: 93.3%

CCC(=O)Oc1ccc(/C=C2\CC/C(=C\c3ccc(OC(=O)CC)c(OC)c3)C2=O)cc1OC
pIC50 [5]: 5.52

COc1cc(/C=C2\CC/C(=C\c3ccc(OC(=O)C(C)C)c(OC)c3)C2=O)ccc1OC(=O)C(C)C
pIC50 [5]: 5.59
